# Key:
# KRS = assay: Western blotting of KRS in cytosol and membrane fractions after LN421 treatment; type: cell-based; conditions: 1 μg/ml LN421, 0 h, 12 h, 24 h
# Method: After seeding RAW 264.7 cells (2×10^6 cells) in 100 pie plate and incubating for 18 hr, the serum free-DMEM media was treated with 1 μg/ml LN421 and the cells were harvested at 0 h, 12 h, and 24 h. RAW 264.7 cell proteins were separated into cytosol and membrane fractions using the ProteoExtract® Subcellular Proteome Extraction Kit (Calbiotech, cat #539790). The obtained protein was subjected to electrophoresis, transferred to PVDF membrane (Millipore) and blocked with 3% skim milk. KRS was then detected by the western blotting. Specifically, KRS polyclonal antibody (rabbit, Neomics, Co. Ltd. #NMS-01-0005) was added to bind for 1 hour. Unbound antibody was removed and then anti-rabbit secondary antibody (Thermo Fisher Scientific, #31460) was added. After reacting with the secondary antibody, the film was developed in the dark room using ECL reagent as a substrate. The detected bands were compared to standard molecular markers to identify the bands corresponding to the size of the KRS. Antibodies against Na+/K+ATPase (Abcam, ab76020) and tubulin (Santa cruz SC-5286) were used to identify plasma membrane and cytosol markers, respectively.
# RAW 264.7 cells = assay: Transwell migration assay with extracellular matrix proteins and laminin subtypes; type: cell-based
# Method: In the extracellular matrix (ECM) that make up the blood vessels, it was identified which promotes the migration and invasion of monocytes/macrophages. Transwell migration assay was performed using collagen (collagen, Col), fibronectin (FN) and laminin (LN) as extracellular matrix. The specific experimental method is as follows. After transwells (Corning, #3421-5 mm) were coated with gelatin (0.5 mg/ml), RAW 264.7 cells (1×10^5 cells/well) were seeded into the top chamber. Fibronectin or Collagen was placed in the bottom chamber. Serum Free DMEM (500 μl) containing 10 μg/ml of Laminin (laminin mixture, Biolamina), Fibronectin or Collagen, respectively, was placed in the bottom chamber. After 24 hours, the cells were treated with 70% methanol for 30 minutes and fixed, and then stained with 50% Hematoxylin for 30 minutes. After removing non-migrating cells from the top of the membrane with a cotton swab, the membrane was taken and mounted on the slide. The migrating cells on the underside of the membrane were observed and quantified under a high magnification microscope.
# The effects of laminin subtypes on immune cell migration and invasion were evaluated. A transwell cell migration assay was performed in the same manner as in the Example 1 using LN111, LN211, LN221, LN411, LN421, LN511, and LN521 at 1 μg/ml as various laminin subtype proteins (purchased from Biolamina). […]
# [1] = Body weight change in MCT-induced PAH model; type: in vivo, SD rats; conditions: sildenafil 25 mpk, n = 5
# Description: (§1) To induce PAH in 7-week-old SD rats (Oriental Bio), 60 mpk of MCT (monocrotaline) were subcutaneously injected.
# [2] = tested on: pulmonary arterial hypertension (PAH) models; assay: Echocardiography in MCT-induced PAH model; type: in vivo, SD rats; conditions: PAH rats, MCT alone: three animals
# Description: as §1
# [3] = tested on: migration and invasion of immune cells; conditions: ear skin wound models, liver ischemia-reperfusion injury models; from Korean applications 10-2017-0076718 and 10-2018-0069146; cited from earlier work
compound,measurement,setting,value
"LN421: laminin subtype α4β2γ1, purchased from Biolamina",amount of KRS detected in the cell membrane region,KRS,increased
same,migration of monocytes/macrophages by laminin subtype,RAW 264.7 cells; laminin subtypes at 1 μg/ml,specifically move in response
"CCCc1nn(C)c2c(=O)[nH]c(-c3cc(S(=O)(=O)N4CCN(C)CC4)ccc3OCC)nc12 [Sildenafil, sildenafil]",Relative change (weight),[1]; MCT + Mock IgG 48.8 ± 7.8,49.8 ± 10.5%
same,Absolute change (weight),[1]; MCT + Mock IgG 101.4 ± 14.2,104.1 ± 26.4 g
same,D-shaped left ventricle finding indicating pressure overload in the right ventricle,[2],three animals
laminin,migration of monocytes/macrophages,"RAW 264.7 cells; collagen, fibronectin or laminin mixture 10 μg/ml in bottom chamber, 24 hours",most strongly promotes
"COc1ccc(CCN(Cc2ccc(C(=O)O)cc2)c2nc3cccc(F)c3s2)cc1 [BC-KI-00053, 4-({(7-fluorobenzo [d]thiazol-2-yl) [2-(4-methoxyphenyl)ethyl]amino}methyl) benzoic acid]",migration and invasion of immune cells,[3],inhibited

# Reference: US11965038B2, “Pharmaceutical composition comprising antibody binding specifically to lysyl-tRNA synthetase N-terminus as effective ingredient for preventing or treating immune cell migration-related disease” (Zymedi Co., Ltd., priority 2017, dated 2024)
